Results reported in US9849186B2, “Triblock copolymer and use therefor” (priority 2012, dated 2017).

Key:
[1] = Local retention of injectable gel, imaging by L-band electron spin resonance; settings: 70 μl s.c. into hind paw
Method: Three mice were used in each group. 70 μl of a solution of the nitroxide radical-containing polyion complex micelles used in Test 1 (PMNT-b-PEG-b-PMNT to PAA molar ratio r=1:1 (RIG). pH 6, 60 mg/ml) was injected subcutaneously into the left hind paws of three mice. […] Local retention of nitroxide radicals in the mouse paws was imaged by L-band electron spin resonance (ESR) using mice immediately after administration.

[2] = system: myeloperoxidase (MPO) activity; assay: Carrageenan-induced arthritis model: MPO activity as marker of neutrophil infiltration; type: in vivo, mice; settings: 50 μl s.c. right hind paw; 5% carrageenan 18 hours later; measured 6 hours after carrageenan
Method: Five mice (n=5) were used in each of 9 groups (Control, RIG, nRIG, Saline@Carr, RIG@Carr, nRIG@Carr, 4-amino-TEMPO@Carr, RNP^N@Carr, nRIG+4-amino-TEMPO@Carr).
50 μl each of nitroxide radical-containing polyion complex micelles for forming an RIG gel (RIG; molar ratio r=1:1, pH 6, 60 mg/ml), nitroxide radical-free polyion complex micelles for forming an nRIG gel (nRIG; molar ratio r=1:1, pH 6, 60 mg/ml), saline, a low-molecular-weight nitroxide radical compound solution (4-aminoTEMPO; 5.45 mg/ml), a nitroxide radical-containing polymer micelle solution (RNP^N; 60 mg/ml), and a solution of low-molecular-weight 4-aminoTEMPO physically mixed with nitroxide radical-free polyion complex micelles (n-RIG+4-aminoTEMPO; molar ratio r=1:1, pH 6, 60 mg/ml) was then injected subcutaneously into the right hind paws of mice. 18 hours later, 50 μl of 5% carrageenan buffer was injected subcutaneously into the right hind paws of the mice in the Saline@Carr, RIG@Carr, nRIG@Carr, 4-amino-TEMPO@Carr, RNP^N@Carr, and nRIG+4-aminoTEMPO@Carr groups (n=5). Nothing was administered to the Control group (n=5). […] The collected tissue of the mouse right hind paws was then homogenized, and the amount of inflammatory cytokines (TNF-α and IL-1β) and myeloperoxidase (MPO) activity as a marker of neutrophil infiltration were measured with an ELISA kit in the supernatant collected by centrifugation.

In the case of `CC1(C)CC(N)CC(C)(C)N1[O]` [4-aminoTEMPO, 4-amino-TEMPO], the “time after administration at which ESR signal disappeared from mouse paws” value [1] is reported as no more than 30 min and the “suppression of MPO activity caused by carrageenan” value [2] is reported as “not significantly suppressed”.
